Test [1] has as its system K562. The test can be described thus: Anti-proliferative activity, SRB staining assay, K562. The class given is cell-based. The note with it: Homo sapiens, 72 h. The protocol:
(§1) Anti-proliferative activity was evaluated using SRB staining assay in various cancer cell lines (K562, A549, HCT116, MDA-MB-231, SNU638, SK-Hep-1). Cells were purchased from the American Type Culture Collection (ATCC, Rockville, MD, USA). They were cultured in media supplemented with 10% fetal bovine serum (FBS) and antibiotics–antimycotics (PSF; 100 units/mL penicillin G sodium, […], and 250 ng/mL amphotericin B). All cells were maintained at 37 °C under a humidified atmosphere containing 5% CO2. Briefly, cells were seeded in 96-well plates with various doses of compounds and incubated for 72 h. The cells were stained as previously described. First, cells were fixed with 10% trichloroacetic acid and stained with 0.4% SRB in a 1% acetic acid solution. After washing and drying, dyes were dissolved in 10 mM Tris buffer (pH 10.0) and absorbance was measured at 515 nm. The percentage of cell proliferation was determined according to the following formula: cell proliferation (%) = 100 × ((A treated − A zero day)/(A control − A zero day)), where A is the average absorbance. The IC50 values were calculated through non-linear regression analysis using TableCurve 2D v5.01 (Systat Software Inc., San Jose, CA, USA).
For orientation: Sulforhodamine B stains cellular protein and so reports cell mass.

The test system of test [2] is A549. The test can be described thus: Anti-proliferative activity, SRB staining assay, A549. The class given is cell-based. The note with it: Homo sapiens, 72 h, read-out: IC50 Anti-Proliferation A549. How it is done:
as §1

The target of test [3] is Candida albicans-derived isocitrate lyase (ICL) (Candida albicans, UniProt Q9P8Q7). Nature of the test: biochemical. It is filed as biochemical. The protocol:
A 1 mL aliquot of the reaction mixture contained 20 mM sodium phosphate buffer (pH 7.0), 1.27 mM threo-DL-(+)-isocitrate, 3.75 mM MgCl2, 4.1 mM phenylhydrazine, and 2.5 μg/mL of recombinant ICL. The reaction was immediately initiated following the addition of a substrate with or without a prescribed concentration of the inhibitor dissolved in DMSO (final concentration, 1%). Glyoxylate phenylhydrazone formation was spectrophotometrically assessed at 324 nm after incubation at 37 °C for 30 min. The percent inhibition of ICL enzyme activity for each compound was calculated relative to the inhibitor-free control and the IC50 values were calculated using nonlinear regression analysis (percent inhibition versus concentration). 3-Nitropropionic acid was used as a positive control. Protein concentrations were measured using the Bradford method with the Bio-Rad protein assay kit (Bio-Rad) and bovine serum albumin as the standard.

Test [4] deals with human umbilical vein endothelial cells (HUVEC). Nature of the test: HUVEC cell viability, MTT assay. The class given is cell-based. The note with it: VEGF 50 ng/mL, 24 h, read-out: IC50 Anti-Angiogenesis Cell Viability. How it is done: (§2) Anti-angiogenic activity was evaluated using human umbilical vein endothelial cells (HUVEC) using previously described experimental methods. HUVEC cells were purchased from the American Type Culture Collection (ATCC, Rockville, MD, USA) and cultured in EGM-2 (Lonza, Walkerswille, MD, USA) supplemented with 10% fetal bovine serum (FBS) and antibiotics–antimycotics (PSF; 100 units/mL penicillin G sodium, […], and 250 ng/mL amphotericin B). Briefly, HUVEC cells were mixed with tested compounds in 0.5% FBS EBM-2 media stimulated with or without VEGF (50 ng/mL) on matrigel-coated 96-well plates for 6 h at 37 °C under a humidified atmosphere containing 5% CO2. After the tube formation, cells were photographed using an inverted microscope (Olympus Optical Co. Ltd., Tokyo, Japan), then images were quantified with Angiogenesis Analyzer using Image J software. Tube formation activity was calculated using the following formula: (Total segment # (tested compound) − Total segment # (VEGF−))/(Total segment # (VEGF+) − Total segment # (VEGF−)) × 100. The IC50 value was calculated through non-linear regression analysis using TableCurve 2D v5.01 (Systat Software Inc., San Jose, CA, USA). Cell viability with HUVEC cells were measured independently. First, HUVEC cells were seeded into a 96-well plate and the culture medium was replaced with a serum-free medium when it reached 60% confluency. After overnight starvation, cells were treated with samples and VEGF (50 ng/mL) in 2% FBS EBM-2 medium. Cells were further incubated for 24 h, and MTT assay was used to measure the cell viability. The formazan products were dissolved in dimethyl sulfoxide (DMSO). The absorbance was measured at 570 nm using VersaMax ELISA microplate reader (Molecular Devices, Sunnyvale, CA, USA).

Test [5] has as its system HCT116. The test can be described thus: Anti-proliferative activity, SRB staining assay, HCT116. As to conditions: Homo sapiens, HCT-116, 72 h, read-out: IC50 Anti-Proliferation HCT 116. The class given is cell-based. The protocol:
as §1

The test system of test [6] is human umbilical vein endothelial cells (HUVEC). The test can be described thus: Anti-angiogenic activity, VEGF-induced tube formation assay. The note with it: for IC50: Homo sapiens, HUVEC, VEGF 50 ng/mL, 6 h, read-out: IC50 Anti-Angiogenesis Tube Formation. It is filed as cell-based. How it is done:
as §2

For test [7], the system named is SK-Hep-1. Nature of the test: Anti-proliferative activity, SRB staining assay, SK-Hep-1. It is filed as cell-based. As to conditions: Homo sapiens, SK-HEP1, 72 h, read-out: IC50 Anti-Proliferation SK-Hep-1. The protocol:
as §1

In test [8] the test system is SNU638. Nature of the test: Anti-proliferative activity, SRB staining assay, SNU638. The note with it: Homo sapiens, SNU-638, 72 h, read-out: IC50 Anti-Proliferation SNU 638. It is filed as cell-based. How it is done: as §1
The test system of test [9] is MDA-MB-231. The test can be described thus: Anti-proliferative activity, SRB staining assay, MDA-MB-231. The class given is cell-based. As to conditions: Homo sapiens, 72 h, read-out: IC50 Anti-Proliferation MDA-MB-231. How it is done: as §1
Where [10] appears, read: recombinant ICL, 37 °C, 30 min, read-out: IC50 ICL.

Read-outs that look alike come from different tables or passages of the source.

Candida albicans-derived isocitrate lyase (ICL), sequence (Q9P8Q7 whole entry): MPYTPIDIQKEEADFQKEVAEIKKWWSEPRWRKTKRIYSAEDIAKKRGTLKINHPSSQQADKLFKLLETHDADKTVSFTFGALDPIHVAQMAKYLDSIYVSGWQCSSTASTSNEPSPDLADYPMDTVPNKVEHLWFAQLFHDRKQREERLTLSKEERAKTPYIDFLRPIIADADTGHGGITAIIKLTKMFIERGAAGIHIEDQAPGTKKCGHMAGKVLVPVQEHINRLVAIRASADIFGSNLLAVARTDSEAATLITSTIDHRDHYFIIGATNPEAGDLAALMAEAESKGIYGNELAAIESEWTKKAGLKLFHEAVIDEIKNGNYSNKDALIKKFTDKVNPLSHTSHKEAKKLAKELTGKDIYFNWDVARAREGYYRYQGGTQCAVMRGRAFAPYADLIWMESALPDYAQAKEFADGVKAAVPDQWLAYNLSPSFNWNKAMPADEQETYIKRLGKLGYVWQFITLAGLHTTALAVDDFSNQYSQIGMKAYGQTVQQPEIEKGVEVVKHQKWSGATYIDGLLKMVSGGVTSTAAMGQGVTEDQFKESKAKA

On to `NC1=NC(=O)C([C@@H]2[C@@H](CNC(=O)c3cc(Br)c[nH]3)[C@H](CNC(=O)c3cc(Br)c[nH]3)[C@H]2C2NC(N)=NC2=O)N1` (mixture of isomers) [Compound 1, dioxysceptrin], for which the IC50 was 12.9 µM in test [1]; 31.3 µM in test [2]; more than 100 µM in [3] (setting [10]); more than 40 µM in test [4]; 9.93 µM in [5]; 7.99 µM in test [6]. Moreover, the IC50 is 35.2 µM in [7], 7.92 µM in test [8] and 32.8 µM in test [9]. The “anti-angiogenic activity in the tube formation assay” value in test [6] (non-cytotoxic concentrations range 5–20 μM) is recorded as “moderate anti-angiogenic activity”.

Turning to `O=C(NC[C@H]1[C@H](CNC(=O)c2cc(Br)c[nH]2)[C@@H](C(=O)O)[C@@H]1C(=O)O)c1cc(Br)c[nH]1` [Compound 2, ageleste C], the IC50 was 19.1 µM in test [1]; 49.3 µM in [2]; 22.1 µM in test [3] (setting [10]); more than 40 µM in test [4]; 44.1 µM in test [5]; more than 40 µM in test [6]. The IC50 in [7] was more than 50 µM; in test [8] it was 36.8 µM; in [9], more than 50 µM. Also, the “inhibition of isocitrate lyase (ICL)” value in test [3] was “moderate inhibition”.

In the case of `COC(=O)[C@@H]1[C@@H](CNC(=O)c2cc(Br)c[nH]2)[C@H](CNC(=O)c2cc(Br)c[nH]2)[C@H]1C(=O)O` [Compound 3, ageleste A], the IC50 in test [1] was 37.6 µM; in [2] it was more than 50 µM; in test [3] (setting [10]), more than 100 µM; in test [4] it was more than 40 µM; in test [5], more than 50 µM; in test [6], more than 40 µM. The IC50 in [7], in test [8] and in [9] was more than 50 µM each time.

`O=C(O)CC[N+](=O)[O-]` [Compound 3-NP, 3-Nitropropionic acid, reference compound] came in with an IC50 in test [3] of 11.1 µM.

For `COC(=O)[C@@H]1[C@@H](CNC(=O)c2cc(Br)c[nH]2)[C@H](CNC(=O)c2cc(Br)c[nH]2)[C@H]1C(=O)OC` [Compound 4, ageleste B], the IC50 in test [1] is 26.4 µM; in test [2] it was 30.5 µM; in test [3] (setting [10]), 85.3 µM; in test [4], more than 40 µM; in [5] it was 38.2 µM; in [6], more than 40 µM. Besides, the IC50 in test [7] was more than 50 µM; in test [8] it was 37.1 µM; in test [9], more than 50 µM.

Take `COc1cccc2c1C(=O)c1c(O)c3c(c(O)c1C2=O)C[C@@](O)(C(=O)CO)C[C@@H]3O[C@H]1C[C@H](N)[C@H](O)[C@H](C)O1` [Doxorubicin, reference compound]: the IC50 in [1] stood at 1.08 µM.

On to `COc1cc([C@@H]2c3cc4c(cc3[C@@H](O[C@@H]3O[C@@H]5CO[C@@H](C)O[C@H]5[C@H](O)[C@H]3O)[C@H]3COC(=O)[C@H]23)OCO4)cc(OC)c1O` [Etoposide, reference compound], for which the IC50 in test [2] came out at 0.83 µM; in test [5], 0.73 µM; in [7], 0.74 µM; in test [8] it was 0.63 µM; in test [9] it was 3.12 µM.

As for `CCN(CC)CCNC(=O)c1c(C)[nH]c(/C=C2\C(=O)Nc3ccc(F)cc32)c1C` [Sunitinib, sunitinib, reference compound], the IC50 in test [4] worked out at 9.92 µM; in [6], 2.41 µM.

These data come from paper PMC6316234, “Bromopyrrole Alkaloids from the Sponge Agelas kosrae” (Marine Drugs, 2018).
